Laboratory results: PMC7562955 (Nature Communications, 2020)

Molecular target: T1, TLR7 (Homo sapiens, UniProt Q9NYK1)
T1 sequence (Q9NYK1 27-1049): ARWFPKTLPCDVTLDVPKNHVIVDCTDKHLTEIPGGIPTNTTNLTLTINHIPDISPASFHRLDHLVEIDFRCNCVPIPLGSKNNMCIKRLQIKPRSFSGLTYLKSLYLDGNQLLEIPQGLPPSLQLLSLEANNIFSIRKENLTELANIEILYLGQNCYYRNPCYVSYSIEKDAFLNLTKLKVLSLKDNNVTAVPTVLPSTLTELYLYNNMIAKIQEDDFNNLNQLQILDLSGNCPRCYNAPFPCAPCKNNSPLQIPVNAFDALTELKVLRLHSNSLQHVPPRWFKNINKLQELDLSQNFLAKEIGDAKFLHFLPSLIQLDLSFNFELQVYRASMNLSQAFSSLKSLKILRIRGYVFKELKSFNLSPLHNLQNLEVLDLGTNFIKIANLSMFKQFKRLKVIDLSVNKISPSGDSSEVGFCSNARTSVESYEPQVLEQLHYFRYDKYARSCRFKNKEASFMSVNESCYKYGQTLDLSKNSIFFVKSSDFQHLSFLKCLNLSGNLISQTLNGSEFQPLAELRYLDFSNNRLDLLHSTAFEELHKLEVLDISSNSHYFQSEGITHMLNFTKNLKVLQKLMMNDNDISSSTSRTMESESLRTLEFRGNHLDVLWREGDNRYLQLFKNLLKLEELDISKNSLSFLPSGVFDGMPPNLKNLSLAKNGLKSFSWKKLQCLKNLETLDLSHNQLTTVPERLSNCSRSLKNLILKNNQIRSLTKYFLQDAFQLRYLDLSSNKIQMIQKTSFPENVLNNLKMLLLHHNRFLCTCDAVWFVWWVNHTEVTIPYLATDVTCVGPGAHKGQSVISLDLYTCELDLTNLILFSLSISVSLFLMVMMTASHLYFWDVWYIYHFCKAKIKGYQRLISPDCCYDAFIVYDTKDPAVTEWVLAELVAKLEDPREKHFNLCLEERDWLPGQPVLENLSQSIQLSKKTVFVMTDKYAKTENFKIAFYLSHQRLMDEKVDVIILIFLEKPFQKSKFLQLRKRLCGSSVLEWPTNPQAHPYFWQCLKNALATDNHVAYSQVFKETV
Experiment: TLR7 inhibition assay in primary human PBMCs (R848-induced IFN-α, ELISA)
Assay type: cell-based
Set-up: Human Peripheral Blood Mononuclear cells (hPBMCs) were collected from healthy adult donors; endogenous in cells; host or cells: primary human PBMCs (plasmacytoid DCs produce the IFN-α)
Settings: for R848-induced IFN-α production: 2.5 μM; for Mean IFN-α / IFN-α: antagonist 2.5 μM; for Mean IFN-α: n = 3; for IFN-α: single replicate
Experimental: Human Peripheral Blood Mononuclear cells (hPBMCs) were collected from healthy adult donors. hPBMCs were cultured in round-bottom 96-well plates (BD Falcon, Durham, NC, USA) with a density of 5 × 10^5 cells/well. Plated cells were pretreated with DMSO or 2.5 μM inhibitors for 3 h and then stimulated by indicated ligands, such as R848 or TLR1/2 specific ligand Pam3CSK4 (Invivogen, HongKong, China), for 20 h in […] of RPMI 1640 medium (Gibco, Paisley, UK) supplemented with 10% FBS, Penicillin-Streptomycin-Glutamine (Gibco, Paisley, UK), 50 μM 2-ME medium at 37 °C in the presence of 5% CO2. Supernatants were collected to measure secreted cytokines by ELISA. Concentration of human IFN-α and TNF-α in the supernatants was measured with Verikine Human IFN-α Multi-Subtype Serum ELISA Kit (PBL Assay Science, Piscataway, NJ, USA) and Human TNF-α Uncoated ELISA (ThermoFisher Scientific, Carlsbad, CA, USA), respectively. This study was approved by the Research Ethics Committee of IMSUT (accession number: 30-100-B20190419).

Row | Compound | R848-induced IFN-α production | Mean IFN-α (activator None) [pg/mL] | IFN-α (activator None) [pg/mL] | Mean IFN-α (activator R848 (200 nM)) [pg/mL] | IFN-α (activator R848 (200 nM)) [pg/mL]
1 | CCOc1nc(N)c2nc(-c3cncc(F)c3)n(Cc3ccc(CN4C[C@@H]5C[C@H]4CN5C)cc3)c2n1 [Cpd-6] | completely blocked | 0 | 0 | 0 | 0
2 | CCOc1nc(C)c2nc(-c3cncc(F)c3)n(Cc3ccc(CN4C[C@@H]5C[C@H]4CN5C)cc3)c2n1 [Cpd-7] | completely blocked | 0 | 0 | 0 | 0
